Laboratory results as given in patent publication US20250136564A1, “PROTEIN TYROSINE PHOSPHATASE INHIBITORS AND USES THEREOF” (Nerio Therapeutics, Inc., priority 2022, published 2025).
pIC50: −log10 of the molar value.

Experiments:
[1] = biological target: full-length human PTPN2 (TC45) (1-387) protein (Homo sapiens (Human), UniProt P17706); test: Enzymatic assay, full-length PTPN2 DiFMUP assay; format: biochemical; settings: 0.5 nM PTPN2, 100 μM DiFMUP, 30 min at room temperature
Source text: Example A: Enzymatic Assay Used to Determine Potency of PTPN2 Inhibitors
Compounds were subsequently added using a Tecan D300e dispenser. […] A four-parameter curve fit was used to determine IC50 values from % inhibition data.

[2] = test system: murine B16F10 melanoma cell line; test: B16F10 IFNγ-induced cellular growth inhibition assay (xCELLigence RTCA); format: cell-based; settings: Mus musculus, B16-F10, 48 h; read-out: B16 IFNγ Mediated Growth Inhibition Assay: AVG IC50
Experimental: Example B: B16F10 Cellular Growth Inhibition Assay
Compound activity was determined using an interferon gamma (IFNγ)-induced cellular growth inhibition assay with the murine B16F10 melanoma cell line on an Agilent xCELLigence Real-Time Cell Analysis platform (RTCA). RTCA E-Plate View 96 plates (Agilent, 300601010) were pre-equilibrated with 50 μL of assay media (DMEM+10% FBS, Gibco 10566-024, Gibco 10082-147) at 37° C., in a humidified incubator before taking an initial measurement of impedance (sweep). B16F10 cells cultured in assay media were dissociated with TrypLE Express (Gibco 12605-010) for five minutes at 37° C., diluted in 3 volumes of assay buffer, centrifuged for 5 minutes at 500×g at room temperature before diluting cells to 7,700 cells/mL in assay media, plating 130 μL/well (1,000 cells/well) in the inner 60 wells of the assay plate, and adding 150 μL of assay media to the outer wells of the plate. Cells were incubated at room temperature for 20 min to allow cells to settle before placing them in the xCELLigence reader and incubating overnight at 37° C., sweeping wells every 15 minutes. After 24 hours, well readings were paused, plates were removed from the incubator and compounds were added using a Tecan D300e dispenser. All wells were normalized to a final concentration of 0.5% DMSO. Following a 30 min incubation at 37° C., recombinant mouse IFNγ (R&D Systems™ 485 MI100) was diluted to 10 ng/ml in assay media and 20 μL was added to assay wells (1 ng/mL final concentration). Assay plates were placed in the xCELLigence reader and swept every 15 minutes. After 48 hours, well readings were normalized to the time point immediately preceding compound addition and the area under the growth curve (AUC) was calculated by the RTCA software and exported.

full-length human PTPN2 (TC45) (1-387) protein, sequence (P17706 other isoform, or with tags, fused parts or gaps): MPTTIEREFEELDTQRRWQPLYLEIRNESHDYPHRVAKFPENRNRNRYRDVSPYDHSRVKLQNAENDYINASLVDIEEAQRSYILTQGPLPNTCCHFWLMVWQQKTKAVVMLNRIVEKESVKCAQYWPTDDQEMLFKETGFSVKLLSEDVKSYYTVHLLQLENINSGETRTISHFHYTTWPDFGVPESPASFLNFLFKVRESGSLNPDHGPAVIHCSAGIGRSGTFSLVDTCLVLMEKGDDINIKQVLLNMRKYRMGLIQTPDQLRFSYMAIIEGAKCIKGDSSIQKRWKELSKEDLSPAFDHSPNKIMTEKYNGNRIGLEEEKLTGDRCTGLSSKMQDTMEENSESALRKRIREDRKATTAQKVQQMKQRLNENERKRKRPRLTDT

CC(C)CCN1CCCc2c1cc(O)c(N1CC(=O)NS1(=O)=O)c2F [Example 8]
pIC50 [1]: 6.02

CCN1CCCc2c1cc(O)c(N1CC(=O)NS1(=O)=O)c2F [Example 5]
pIC50 [1]: 6.06

CC(C)CN1CCCc2c1cc(O)c(N1CC(=O)NS1(=O)=O)c2F [Example 6]
pIC50 [1]: 6.02

O=C1CN(c2c(O)cc3c(c2F)CCCN3)S(=O)(=O)N1 [Example 3, 5-(5-fluoro-7-hydroxy-1,2,3,4-tetrahydroquinolin-6-yl)-1,2,5-thiadiazolidin-3-one 1,1-dioxide]
pIC50 [1]: 6.88
pIC50 [2]: 5.48

CC(C)CCNC1CNc2cc(O)c(N3CC(=O)NS3(=O)=O)c(F)c2C1 (stereo not drawn) [Example 2, 5-(5-fluoro-7-hydroxy-3-(isopentylamino)-1,2,3,4-tetrahydroquinolin-6-yl)-1,2,5-thiadiazolidin-3-one 1,1-dioxide]
pIC50 [1]: 7.89
pIC50 [2]: 5.84

COc1cc2c(c(F)c1N1CC(=O)NS1(=O)=O)CC(NCCC(C)C)CN2C (stereo not drawn) [Example 1, 5-(5-fluoro-3-(isopentylamino)-7-methoxy-1-methyl-1,2,3,4-tetrahydroquinolin-6-yl)-1,2,5-thiadiazolidin-3-one 1,1-dioxide]
pIC50 [1]: < 4.52

O=C1CN(c2c(O)cc3c(c2F)CCCN3CCc2ccccc2)S(=O)(=O)N1 [Example 9]
pIC50 [1]: 5.79

CN1CCCc2c1cc(O)c(N1CC(=O)NS1(=O)=O)c2F [Example 4, 5-(5-fluoro-7-hydroxy-1-methyl-1,2,3,4-tetrahydroquinolin-6-yl)-1,2,5-thiadiazolidin-3-one 1,1-dioxide]
pIC50 [1]: 6.06
pIC50 [2]: 4.90

O=C1CN(c2c(O)cc3c(c2F)CCCN3Cc2ccccc2)S(=O)(=O)N1 [Example 7]
pIC50 [1]: 6.27
